In the supplement of paper PMC4862054:

How the values were obtained:
Details in all cases: incubation time: 72 h
[1] = test system: MDA-MB-436; test: drug sensitivity score (DSS), CellTiter-Glo (DSS (AUC-based score)); higher = stronger drug effect (viability inhibition or cytotoxicity); extreme values may be limits of the assay
How it was run: (§1)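 Breast cancer cell lines (20 µl suspension) were seeded into 384-well plates holding compound at 5 concentrations in 10-fold steps over a compound-specific 10,000-fold range, then incubated 72 h. CellTox Green fluorescence (485/520 nm) was read first, then CellTiter-Glo luminescence after 10 min at room temperature. Each plate was normalised to 0.1 % DMSO and a positive kill control. The drug sensitivity score was calculated from the area under the fitted dose-response curve.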

[2] = test system: DU-4475; test: as above
How it was run: as §1

[3] = test system: MDA-MB-231; test: as above
How it was run: as §1

[4] = test system: CAL-85-1; test: as above
How it was run: as §1

[5] = test system: Hs578T; test: as above
How it was run: as §1

[6] = test system: HCC1143; test: as above
How it was run: as §1

[7] = test system: HCC1599; test: as above
How it was run: as §1

[8] = test system: SK-BR-3; test: as above
How it was run: as §1

[9] = test system: BT-549; test: as above
How it was run: as §1

[10] = test system: BT-474; test: as above
How it was run: as §1

[11] = test system: MDA-MB-436; test: normalised viability (% of control), CellTiter-Blue; higher = more viable cells (about 100 = DMSO control)
Description: (§2)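 DSRT, CellTiter-Blue viability, 72 h incubation. Signal is normalised to DMSO and benzethonium chloride controls. Value is the normalised response at dose 3.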

[12] = test system: MFM-223; test: as above
Description: as §2

[13] = test system: HDQ-P1; test: as above
Description: as §2

[14] = test system: CAL-51; test: as above
Description: as §2

[15] = test system: DU-4475; test: as above
Description: as §2

[16] = test system: MDA-MB-231; test: as above
Description: as §2

[17] = test system: CAL-85-1; test: as above
Description: as §2

[18] = test system: MDA-MB-453; test: as above
Description: as §2

[19] = test system: Hs578T; test: as above
Description: as §2

[20] = test system: HCC1937; test: as above
Description: as §2

[21] = test system: MDA-MB-468; test: as above
Description: as §2

[22] = test system: HCC1143; test: as above
Description: as §2

[23] = test system: CAL-148; test: as above
Description: as §2

[24] = test system: HCC1599; test: as above
Description: as §2

[25] = test system: SK-BR-3; test: as above
Description: as §2

[26] = test system: CAL-120; test: as above
Description: as §2

[27] = test system: BT-549; test: as above
Description: as §2

[28] = test system: BT-474; test: as above
Description: as §2

Q: With `COC(=O)c1ccc2c(c1)NC(=O)/C2=C(\Nc1ccc(N(C)C(=O)CN2CCN(C)CC2)cc1)c1ccccc1` [Nintedanib] as the molecule, how does the drug sensitivity score [1] read?
A: 3.08

Q: And the drug sensitivity score [2]?
A: 0

Q: And the drug sensitivity score [3]?
A: 6.66

Q: And the drug sensitivity score [4]?
A: 0

Q: And the drug sensitivity score [5]?
A: 1.11

Q: What about the drug sensitivity score [6] of the same molecule?
A: 2.02

Q: And the drug sensitivity score [7]?
A: 0

Q: What about the drug sensitivity score [8] of the same molecule?
A: 0

Q: What about the drug sensitivity score [9] of the same molecule?
A: 8.24

Q: And the drug sensitivity score [10]?
A: 5.02

Q: `C=C1C[C@@H]2[C@H](CC[C@]3(C)C(=O)CC[C@@H]23)[C@@]2(C)C=CC(=O)C=C12` [Exemestane] was tested. Which drug sensitivity score [1] did it give?
A: 0

Q: And the drug sensitivity score [2]?
A: 0

Q: What about the drug sensitivity score [3] of the same molecule?
A: 0

Q: And the drug sensitivity score [4]?
A: 0

Q: And the drug sensitivity score [5]?
A: 0

Q: And the drug sensitivity score [6]?
A: 0

Q: What about the drug sensitivity score [7] of the same molecule?
A: 0

Q: What about the drug sensitivity score [8] of the same molecule?
A: 0

Q: What about the drug sensitivity score [9] of the same molecule?
A: 0

Q: And the drug sensitivity score [10]?
A: 0

Q: What about the normalised viability ([11]; 100 nM) of the same molecule?
A: 82.8%

Q: And the normalised viability ([12]; 100 nM)?
A: 93%

Q: And the normalised viability ([13]; 10 nM)?
A: 102%

Q: What about the normalised viability ([14]; 10 nM) of the same molecule?
A: 96.2%

Q: What about the normalised viability ([15]; 10 nM) of the same molecule?
A: 91.1%

Q: What about the normalised viability ([16]; 100 nM) of the same molecule?
A: 99.2%

Q: What about the normalised viability ([17]; 10 nM) of the same molecule?
A: 84.4%

Q: What about the normalised viability ([18]; 10 nM) of the same molecule?
A: 102%

Q: What about the normalised viability ([19]; 100 nM) of the same molecule?
A: 94.4%

Q: What about the normalised viability ([20]; 100 nM) of the same molecule?
A: 103%

Q: What about the normalised viability ([21]; 100 nM) of the same molecule?
A: 111%

Q: What about the normalised viability ([22]; 100 nM) of the same molecule?
A: 96%

Q: And the normalised viability ([23]; 10 nM)?
A: 95.4%

Q: And the normalised viability ([24]; 100 nM)?
A: 87.6%

Q: What about the normalised viability ([25]; 100 nM) of the same molecule?
A: 78%

Q: And the normalised viability ([26]; 100 nM)?
A: 92.7%

Q: And the normalised viability ([27]; 100 nM)?
A: 106%

Q: And the normalised viability ([28]; 100 nM)?
A: 99.4%

Q: With `c1ccc2c(CCNc3ccc(Nc4ccncc4)cc3)c[nH]c2c1` [Serdemetan] as the molecule, how does the drug sensitivity score [1] read?
A: 2.94

Q: What about the drug sensitivity score [2] of the same molecule?
A: 7.09

Q: What about the drug sensitivity score [3] of the same molecule?
A: 3.86

Q: What about the drug sensitivity score [4] of the same molecule?
A: 1.35

Q: And the drug sensitivity score [5]?
A: 0.96

Q: What about the drug sensitivity score [6] of the same molecule?
A: 0

Q: What about the drug sensitivity score [7] of the same molecule?
A: 3.17

Q: What about the drug sensitivity score [8] of the same molecule?
A: 6.23

Q: And the drug sensitivity score [9]?
A: 6.83

Q: And the drug sensitivity score [10]?
A: 4.79

Q: And the normalised viability ([11]; 100 nM)?
A: 113%

Q: And the normalised viability ([12]; 100 nM)?
A: 92.4%

Q: What about the normalised viability ([13]; 10 nM) of the same molecule?
A: 106%

Q: What about the normalised viability ([14]; 10 nM) of the same molecule?
A: 104%

Q: And the normalised viability ([15]; 10 nM)?
A: 103%

Q: What about the normalised viability ([16]; 100 nM) of the same molecule?
A: 85.8%

Q: What about the normalised viability ([17]; 10 nM) of the same molecule?
A: 102%

Q: What about the normalised viability ([18]; 10 nM) of the same molecule?
A: 96.7%

Q: And the normalised viability ([19]; 100 nM)?
A: 77.2%

Q: What about the normalised viability ([20]; 100 nM) of the same molecule?
A: 95.2%

Q: What about the normalised viability ([21]; 100 nM) of the same molecule?
A: 108%

Q: What about the normalised viability ([22]; 100 nM) of the same molecule?
A: 76%

Q: What about the normalised viability ([23]; 10 nM) of the same molecule?
A: 83.5%

Q: And the normalised viability ([24]; 100 nM)?
A: 136%

Q: What about the normalised viability ([25]; 100 nM) of the same molecule?
A: 79.7%

Q: What about the normalised viability ([26]; 100 nM) of the same molecule?
A: 81.9%

Q: And the normalised viability ([27]; 100 nM)?
A: 113%

Q: And the normalised viability ([28]; 100 nM)?
A: 111%

Q: `Cc1cc(Nc2cc(CN3CCOCC3)c3nc(C)c(Cc4ccc(Cl)cc4F)n3n2)n[nH]1` [Gandotinib] was tested. Which drug sensitivity score [1] did it give?
A: 4.83

Q: What about the drug sensitivity score [2] of the same molecule?
A: 0.384

Q: And the drug sensitivity score [3]?
A: 7.43

Q: And the drug sensitivity score [4]?
A: 4.82

Q: What about the drug sensitivity score [5] of the same molecule?
A: 6.39

Q: What about the drug sensitivity score [6] of the same molecule?
A: 2.62

Q: And the drug sensitivity score [7]?
A: 0

Q: What about the drug sensitivity score [8] of the same molecule?
A: 3.64

Q: And the drug sensitivity score [9]?
A: 6.71

Q: What about the drug sensitivity score [10] of the same molecule?
A: 6.22

Q: What does the source list for `CCOC(=O)CCNc1cc(N2CCc3ccccc3CC2)nc(-c2ccccn2)n1` [GSK-J4]?
A: drug sensitivity score [1]: 15.7; drug sensitivity score [2]: 13.5; drug sensitivity score [3]: 14; drug sensitivity score [4]: 15.1; drug sensitivity score [5]: 10.4; drug sensitivity score [6]: 12.5; drug sensitivity score [7]: 12.1; drug sensitivity score [8]: 10.7; drug sensitivity score [9]: 22.2; drug sensitivity score [10]: 12.1

Q: How did the drug sensitivity score [1] turn out when `S=P(N1CC1)(N1CC1)N1CC1` [Thio-TEPA] was run?
A: 0

Q: And the drug sensitivity score [2]?
A: 0

Q: And the drug sensitivity score [3]?
A: 0

Q: And the drug sensitivity score [4]?
A: 0

Q: And the drug sensitivity score [5]?
A: 0

Q: What about the drug sensitivity score [6] of the same molecule?
A: 0

Q: What about the drug sensitivity score [7] of the same molecule?
A: 0

Q: What about the drug sensitivity score [8] of the same molecule?
A: 0

Q: What about the drug sensitivity score [9] of the same molecule?
A: 1.83

Q: What about the drug sensitivity score [10] of the same molecule?
A: 0

Q: What about the normalised viability ([11]; 1000 nM) of the same molecule?
A: 118%

Q: What about the normalised viability ([12]; 1000 nM) of the same molecule?
A: 88.4%

Q: And the normalised viability ([13]; 100 nM)?
A: 120%

Q: What about the normalised viability ([14]; 100 nM) of the same molecule?
A: 93.7%

Q: And the normalised viability ([15]; 100 nM)?
A: 102%

Q: What about the normalised viability ([16]; 1000 nM) of the same molecule?
A: 98.2%

Q: What about the normalised viability ([17]; 100 nM) of the same molecule?
A: 102%

Q: What about the normalised viability ([18]; 100 nM) of the same molecule?
A: 97.6%

Q: And the normalised viability ([19]; 1000 nM)?
A: 90.8%

Q: And the normalised viability ([20]; 1000 nM)?
A: 123%

Q: And the normalised viability ([21]; 1000 nM)?
A: 103%

Q: And the normalised viability ([22]; 1000 nM)?
A: 88.8%

Q: What about the normalised viability ([23]; 100 nM) of the same molecule?
A: 102%

Q: What about the normalised viability ([24]; 1000 nM) of the same molecule?
A: 87.4%

Q: And the normalised viability ([25]; 1000 nM)?
A: 91.1%

Q: What about the normalised viability ([26]; 1000 nM) of the same molecule?
A: 86.7%

Q: What about the normalised viability ([27]; 1000 nM) of the same molecule?
A: 105%

Q: And the normalised viability ([28]; 1000 nM)?
A: 114%

Q: Which results are given for `N#Cc1ccc(COC[C@H]2O[C@@H](n3c(NCc4ccc(Cl)c(Cl)c4)nc4c(N)ncnc43)[C@H](O)[C@@H]2O)cc1`?
A: drug sensitivity score [1]: 0; drug sensitivity score [2]: 2.77; drug sensitivity score [3]: 0; drug sensitivity score [4]: 0; drug sensitivity score [5]: 1.73; drug sensitivity score [6]: 1.09; drug sensitivity score [7]: 0; drug sensitivity score [8]: 2.28; drug sensitivity score [9]: 3.44; drug sensitivity score [10]: 3.43; normalised viability ([11]; 100 nM): 104%; normalised viability ([12]; 100 nM): 93.9%; normalised viability ([13]; 10 nM): 116%; normalised viability ([14]; 10 nM): 109%; normalised viability ([15]; 10 nM): 111%; normalised viability ([16]; 100 nM): 90.1%; normalised viability ([17]; 10 nM): 110%; normalised viability ([18]; 10 nM): 105%; normalised viability ([19]; 100 nM): 95.8%; normalised viability ([20]; 100 nM): 99.4%; normalised viability ([21]; 100 nM): 94.5%; normalised viability ([22]; 100 nM): 94.7%; normalised viability ([23]; 10 nM): 103%; normalised viability ([24]; 100 nM): 97.1%; normalised viability ([25]; 100 nM): 89.7%; normalised viability ([26]; 100 nM): 106%; normalised viability ([27]; 100 nM): 95.2%; normalised viability ([28]; 100 nM): 123%

Q: Which drug sensitivity score [1] does the source give for `Nc1cc(C(F)(F)F)c(-c2cc(N3CCOCC3)nc(N3CCOCC3)n2)cn1` [Buparlisib] here?
A: 0

Q: And the drug sensitivity score [2]?
A: 1.54

Q: What about the drug sensitivity score [3] of the same molecule?
A: 3

Q: And the drug sensitivity score [4]?
A: 0

Q: And the drug sensitivity score [5]?
A: 1.39

Q: What about the drug sensitivity score [6] of the same molecule?
A: 1.75

Q: And the drug sensitivity score [7]?
A: 0

Q: And the drug sensitivity score [8]?
A: 0

Q: What about the drug sensitivity score [9] of the same molecule?
A: 7.05

Q: What about the drug sensitivity score [10] of the same molecule?
A: 3.23
